# PubChem BioAssay (NCI)
#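 96-well plates; 48 h exposure; 5 concentrations. Endpoints by linear interpolation between flanking doses. Not reached: highest tested concentration assigned. GI50: concentration for 50% inhibition of growth. TGI marks complete inhibition of growth.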
# Assays:
# Test in all cases: NCI-60 cell line screen, 48 h
# KM12 colon = test system: KM12 colon
# M14 melanoma = test system: M14 melanoma
# U251 CNS = test system: U251 CNS
# SW-620 colon = test system: SW-620 colon
# SNB-75 CNS = test system: SNB-75 CNS
# COLO 205 colon = test system: COLO 205 colon
# 786-0 renal = test system: 786-0 renal
# HT29 colon = test system: HT29 colon
# HCT-116 colon = test system: HCT-116 colon
# HOP-92 NSCLC = test system: HOP-92 NSCLC
# PC-3 prostate = test system: PC-3 prostate
# MOLT-4 leukemia = test system: MOLT-4 leukemia
# BT-549 breast = test system: BT-549 breast
# K-562 leukemia = test system: K-562 leukemia
# UACC-257 melanoma = test system: UACC-257 melanoma
# MALME-3M melanoma = test system: MALME-3M melanoma
# NCI-H460 lung = test system: NCI-H460 lung
# OVCAR-5 ovarian = test system: OVCAR-5 ovarian
# CAKI-1 renal = test system: CAKI-1 renal
# MDA-MB-231 breast = test system: MDA-MB-231 breast
# SR leukemia = test system: SR leukemia
# HCC-2998 colon = test system: HCC-2998 colon
# NCI-H226 lung = test system: NCI-H226 lung
# IGROV1 ovarian = test system: IGROV1 ovarian
# MCF7 breast = test system: MCF7 breast
# EKVX NSCLC = test system: EKVX NSCLC
# DU-145 prostate = test system: DU-145 prostate
# TK-10 renal = test system: TK-10 renal
# HL-60(TB) leukemia = test system: HL-60(TB) leukemia
# T-47D breast = test system: T-47D breast
# RXF 393 renal = test system: RXF 393 renal
# A549 NSCLC = test system: A549 NSCLC
# SK-MEL-28 melanoma = test system: SK-MEL-28 melanoma
# SF-539 CNS = test system: SF-539 CNS
# ACHN renal = test system: ACHN renal
# SNB-19 CNS = test system: SNB-19 CNS
# MDA-MB-435 = test system: MDA-MB-435
# NCI-H23 lung = test system: NCI-H23 lung
# A498 renal = test system: A498 renal
# SN12C renal = test system: SN12C renal
# HOP-62 NSCLC = test system: HOP-62 NSCLC
# UACC-62 melanoma = test system: UACC-62 melanoma
# CCRF-CEM leukemia = test system: CCRF-CEM leukemia
# SF-268 CNS = test system: SF-268 CNS
# OVCAR-4 ovarian = test system: OVCAR-4 ovarian
# LOX IMVI melanoma = test system: LOX IMVI melanoma
# OVCAR-8 ovarian = test system: OVCAR-8 ovarian
# UO-31 renal = test system: UO-31 renal
# HCT-15 colon = test system: HCT-15 colon
# SK-OV-3 ovarian = test system: SK-OV-3 ovarian
# NCI/ADR-RES ovarian = test system: NCI/ADR-RES ovarian
# NCI-H522 lung = test system: NCI-H522 lung
# SF-295 CNS = test system: SF-295 CNS
# OVCAR-3 ovarian = test system: OVCAR-3 ovarian
# SK-MEL-5 melanoma = test system: SK-MEL-5 melanoma
# HS 578T breast = test system: HS 578T breast
# RPMI-8226 leukemia = test system: RPMI-8226 leukemia
# SK-MEL-2 melanoma = test system: SK-MEL-2 melanoma
# MDA-N = test system: MDA-N
structure (smiles),measurement,setting,value
COc1cc2c(c(O)c1OC)C(O)C1CCC(=O)N1C2c1ccc2c(c1)OCO2 (configuration not stated),TGI,KM12 colon,> 100 µM
same,TGI,M14 melanoma,> 100 µM
same,TGI,U251 CNS,> 100 µM
same,TGI,SW-620 colon,> 100 µM
same,TGI,SNB-75 CNS,> 100 µM
same,TGI,COLO 205 colon,> 100 µM
same,TGI,786-0 renal,> 100 µM
same,TGI,HT29 colon,> 100 µM
same,TGI,HCT-116 colon,> 100 µM
same,TGI,HOP-92 NSCLC,> 100 µM
same,TGI,PC-3 prostate,> 100 µM
same,TGI,MOLT-4 leukemia,> 100 µM
same,TGI,BT-549 breast,> 100 µM
same,TGI,K-562 leukemia,> 100 µM
same,TGI,UACC-257 melanoma,> 100 µM
same,TGI,MALME-3M melanoma,> 100 µM
same,TGI,NCI-H460 lung,> 100 µM
same,TGI,OVCAR-5 ovarian,> 100 µM
same,TGI,CAKI-1 renal,> 100 µM
same,TGI,MDA-MB-231 breast,> 100 µM
same,TGI,SR leukemia,> 100 µM
same,TGI,HCC-2998 colon,> 100 µM
same,TGI,NCI-H226 lung,> 100 µM
same,TGI,IGROV1 ovarian,> 100 µM
same,TGI,MCF7 breast,> 100 µM
same,TGI,EKVX NSCLC,> 100 µM
same,TGI,DU-145 prostate,> 100 µM
same,TGI,TK-10 renal,> 100 µM
same,TGI,HL-60(TB) leukemia,> 100 µM
same,TGI,T-47D breast,> 100 µM
same,TGI,RXF 393 renal,> 100 µM
same,TGI,A549 NSCLC,> 100 µM
same,TGI,SK-MEL-28 melanoma,> 100 µM
same,TGI,SF-539 CNS,> 100 µM
same,TGI,ACHN renal,> 100 µM
same,TGI,SNB-19 CNS,> 100 µM
same,TGI,MDA-MB-435,> 100 µM
same,TGI,NCI-H23 lung,> 100 µM
same,TGI,A498 renal,> 100 µM
same,TGI,SN12C renal,> 100 µM
same,TGI,HOP-62 NSCLC,> 100 µM
same,TGI,UACC-62 melanoma,> 100 µM
same,TGI,CCRF-CEM leukemia,> 100 µM
same,TGI,SF-268 CNS,> 100 µM
same,TGI,OVCAR-4 ovarian,> 100 µM
same,TGI,LOX IMVI melanoma,> 100 µM
same,TGI,OVCAR-8 ovarian,> 100 µM
same,TGI,UO-31 renal,> 100 µM
same,TGI,HCT-15 colon,> 100 µM
same,TGI,SK-OV-3 ovarian,> 100 µM
same,TGI,NCI/ADR-RES ovarian,> 100 µM
same,TGI,NCI-H522 lung,> 100 µM
same,TGI,SF-295 CNS,> 100 µM
same,TGI,OVCAR-3 ovarian,> 100 µM
c1c2c(cc3c1OCO3)-c1ncc3cc4c(cc3c1C2)OCO4,GI50,M14 melanoma,< 0.01 µM
same,TGI,M14 melanoma,> 100 µM
same,GI50,SK-MEL-5 melanoma,0.216 µM
same,TGI,SK-MEL-5 melanoma,0.479 µM
same,GI50,U251 CNS,< 0.0369 µM
same,TGI,U251 CNS,26.9 µM
same,GI50,SW-620 colon,0.136 µM
same,TGI,SW-620 colon,> 100 µM
same,GI50,COLO 205 colon,< 0.0354 µM
same,TGI,786-0 renal,44.2 µM
same,GI50,HT29 colon,< 0.01 µM
same,TGI,HT29 colon,> 100 µM
same,TGI,HS 578T breast,> 94.8 µM
same,GI50,HCT-116 colon,< 0.0305 µM
same,TGI,HCT-116 colon,> 61.2 µM
same,GI50,HOP-92 NSCLC,33.4 µM
same,TGI,HOP-92 NSCLC,> 80.5 µM
same,GI50,PC-3 prostate,0.581 µM
same,TGI,PC-3 prostate,> 100 µM
same,GI50,MOLT-4 leukemia,0.0147 µM
same,TGI,MOLT-4 leukemia,0.152 µM
same,GI50,BT-549 breast,0.211 µM
same,TGI,BT-549 breast,> 100 µM
same,GI50,K-562 leukemia,0.0101 µM
same,TGI,K-562 leukemia,> 64.9 µM
same,GI50,NCI-H460 lung,0.108 µM
same,TGI,NCI-H460 lung,> 47.1 µM
same,GI50,OVCAR-5 ovarian,44.7 µM
same,TGI,OVCAR-5 ovarian,> 100 µM
same,GI50,CAKI-1 renal,< 0.0154 µM
same,TGI,CAKI-1 renal,2.14 µM
same,GI50,SR leukemia,< 0.01 µM
same,TGI,HCC-2998 colon,> 32.4 µM
same,GI50,NCI-H226 lung,8.8 µM
same,TGI,NCI-H226 lung,> 100 µM
same,TGI,IGROV1 ovarian,> 100 µM
same,GI50,MCF7 breast,< 0.0377 µM
same,TGI,MCF7 breast,7.44 µM
same,GI50,EKVX NSCLC,19 µM
same,TGI,EKVX NSCLC,> 100 µM
same,GI50,RPMI-8226 leukemia,0.108 µM
same,TGI,RPMI-8226 leukemia,> 76.9 µM
same,GI50,TK-10 renal,0.143 µM
same,TGI,TK-10 renal,3.87 µM
same,GI50,HL-60(TB) leukemia,0.0713 µM
same,TGI,HL-60(TB) leukemia,> 100 µM
same,GI50,T-47D breast,> 100 µM
same,TGI,T-47D breast,> 100 µM
same,GI50,SK-MEL-2 melanoma,> 8.58 µM
same,TGI,SK-MEL-2 melanoma,> 87.1 µM
same,GI50,RXF 393 renal,0.797 µM
same,TGI,RXF 393 renal,43.5 µM
same,GI50,A549 NSCLC,0.702 µM
same,TGI,A549 NSCLC,> 77 µM
same,GI50,SK-MEL-28 melanoma,< 0.01 µM
same,TGI,SK-MEL-28 melanoma,41.8 µM
same,GI50,SF-539 CNS,0.598 µM
same,TGI,SF-539 CNS,5.25 µM
same,GI50,ACHN renal,0.0337 µM
same,TGI,ACHN renal,6.33 µM
same,TGI,SNB-19 CNS,43.6 µM
same,GI50,MDA-MB-435,54 µM
same,TGI,MDA-MB-435,> 100 µM
same,GI50,NCI-H23 lung,< 0.0229 µM
same,TGI,NCI-H23 lung,> 24.7 µM
same,GI50,SN12C renal,0.0414 µM
same,TGI,SN12C renal,> 100 µM
same,GI50,HOP-62 NSCLC,0.112 µM
same,TGI,HOP-62 NSCLC,27.5 µM
same,GI50,UACC-62 melanoma,< 0.0267 µM
same,TGI,UACC-62 melanoma,9.16 µM
same,GI50,CCRF-CEM leukemia,17.6 µM
same,TGI,CCRF-CEM leukemia,> 100 µM
same,GI50,SF-268 CNS,0.112 µM
same,TGI,SF-268 CNS,7.79 µM
same,GI50,OVCAR-4 ovarian,28.6 µM
same,TGI,OVCAR-4 ovarian,> 100 µM
same,GI50,LOX IMVI melanoma,< 0.01 µM
same,TGI,LOX IMVI melanoma,94.1 µM
same,GI50,OVCAR-8 ovarian,0.111 µM
same,TGI,OVCAR-8 ovarian,10.7 µM
same,GI50,UO-31 renal,2.49 µM
same,TGI,UO-31 renal,> 100 µM
same,GI50,HCT-15 colon,< 0.01 µM
same,TGI,HCT-15 colon,24.8 µM
same,GI50,SK-OV-3 ovarian,< 0.01 µM
same,TGI,SK-OV-3 ovarian,26.8 µM
same,GI50,NCI/ADR-RES ovarian,0.0508 µM
same,TGI,NCI/ADR-RES ovarian,52.4 µM
same,TGI,NCI-H522 lung,72.2 µM
same,TGI,SF-295 CNS,> 34 µM
same,GI50,OVCAR-3 ovarian,0.18 µM
same,TGI,OVCAR-3 ovarian,0.356 µM
O=C(C=P(c1ccccc1)(c1ccccc1)c1ccccc1)c1ccccc1-c1ccccc1C(=O)C=P(c1ccccc1)(c1ccccc1)c1ccccc1,TGI,KM12 colon,0.02 µM
same,TGI,M14 melanoma,1.42 µM
same,TGI,SK-MEL-5 melanoma,0.0263 µM
same,TGI,MDA-N,1.1 µM
same,TGI,SNB-75 CNS,0.115 µM
same,TGI,COLO 205 colon,0.0222 µM
same,TGI,786-0 renal,1.25 µM
same,TGI,HS 578T breast,0.317 µM
same,TGI,HCT-116 colon,0.259 µM
same,TGI,HOP-92 NSCLC,0.0544 µM
same,TGI,PC-3 prostate,1.23 µM
same,TGI,K-562 leukemia,0.0905 µM
same,TGI,MALME-3M melanoma,< 0.0208 µM
same,TGI,OVCAR-5 ovarian,0.585 µM
same,TGI,CAKI-1 renal,1.1 µM
same,TGI,MDA-MB-231 breast,0.158 µM
same,TGI,SR leukemia,0.0667 µM
same,TGI,IGROV1 ovarian,1.36 µM
same,TGI,MCF7 breast,0.0395 µM
same,TGI,EKVX NSCLC,0.91 µM
same,TGI,DU-145 prostate,1.28 µM
same,TGI,TK-10 renal,0.182 µM
same,TGI,HL-60(TB) leukemia,< 0.0195 µM
same,TGI,T-47D breast,2.08 µM
same,TGI,SK-MEL-28 melanoma,2.03 µM
same,TGI,SF-539 CNS,0.384 µM
same,TGI,ACHN renal,1.12 µM
same,TGI,SNB-19 CNS,1.58 µM
same,TGI,MDA-MB-435,1.11 µM
same,TGI,NCI-H23 lung,0.0899 µM
same,TGI,HOP-62 NSCLC,0.507 µM
same,TGI,UACC-62 melanoma,1.33 µM
same,TGI,CCRF-CEM leukemia,0.843 µM
same,TGI,SF-268 CNS,1.61 µM
same,TGI,OVCAR-4 ovarian,1.63 µM
same,TGI,LOX IMVI melanoma,0.0716 µM
same,TGI,SK-OV-3 ovarian,0.366 µM
same,TGI,NCI-H522 lung,1.78 µM
same,TGI,SF-295 CNS,0.0496 µM
same,TGI,OVCAR-3 ovarian,< 0.012 µM
